From patent US20220047656A1, “SACCHAROMYCES CEREVISIAE YEAST STRAIN FOR THE TREATMENT AND/OR PREVENTION OF OROPHARYNGEAL CANDIDIASIS” (LESAFFRE ET COMPAGNIE, priority 2018, published 2022)

Key:
Type in all cases: in vivo, C57BL/6 mice
TNF-α = assay: ELISA of TNF-α in supernatants of tongue homogenates; settings: vs infected mice treated with saline solution
IL-6 = assay: ELISA of IL-6 in supernatants of tongue homogenates
IL-1β = assay: ELISA of IL-1β in supernatants of tongue homogenates; settings: vs infected mice treated with saline solution

OC(Cn1cncn1)(Cn1cncn1)c1ccc(F)cc1F [FLZ, fluconazole]
production of TNF-α (TNF-α; 3 days after infection): considerable inhibition
production of TNF-α (TNF-α; 6 days post-infection): significant decrease
production of IL-6 (IL-6; 3 days after infection, otherwise unchanged compared to the untreated mice): exception
production of IL-6 (IL-6; 6 days post-infection, vs infected mice treated with saline solution): significant decrease
production of IL-1β (IL-1β; 3 days after infection): considerable inhibition
production of IL-1β (IL-1β; 6 days post-infection): significant decrease
